{"source": "paper PMC8837113", "about": "“Drug Repurposing of the Unithiol: Inhibition of Metallo-β-Lactamases for the Treatment of Carbapenem-Resistant Gram-Negative Bacterial Infections” (International Journal of Molecular Sciences, 2022)", "key": {"[1]": {"target": "T1, metallo-β-lactamase VIM-2 (Pseudomonas aeruginosa, UniProt Q9K2N0)", "T1 construct": "gene blaVIM-2; active mature VIM-2 in periplasmic fractions of P. aeruginosa strains B-730P/17 and B-2099/18", "assay": "kinetic inhibition assay in periplasmic fractions (Figure S1); disk diffusion and MIC support", "type": "cell-based"}, "[2]": {"target": "T2, metallo-β-lactamase NDM-1 (Klebsiella pneumoniae, UniProt C7C422)", "T2 construct": "gene blaNDM-1; recombinant NDM-1, purified from the periplasmic fraction of E. coli BL21(DE3) (pET-NDM)", "T2 sequence (C7C422 29-270 limits assumed)": "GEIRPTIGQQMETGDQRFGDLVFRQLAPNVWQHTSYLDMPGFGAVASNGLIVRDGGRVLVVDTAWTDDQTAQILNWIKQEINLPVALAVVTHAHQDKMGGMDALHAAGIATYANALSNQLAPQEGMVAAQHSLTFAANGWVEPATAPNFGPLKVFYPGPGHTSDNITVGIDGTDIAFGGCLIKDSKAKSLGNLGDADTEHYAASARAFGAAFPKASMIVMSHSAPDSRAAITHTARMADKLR", "assay": "meropenem hydrolysis kinetics, Lineweaver–Burk (spectrophotometric, […] nm)", "type": "biochemical"}}, "data": [{"smiles": "O=S(=O)(O)CC(S)CS", "note": "(centres unmarked) [compound 2, 2,3-dimercaptopropane-1-sulfonate]", "values": [{"measurement": "kinetic inhibition assay in periplasmic fractions (Figure S1); disk diffusion an", "setting": "[1]", "value": "A noticeable dose-dependent inhibitory effect of unithiol (Figure S1) was observed for the two strains studied"}, {"measurement": "Ki", "setting": "[2]", "value": "16.7 ± 1.2", "unit": "µM"}]}]}
